Experiments:
[1] = system: freshwater algae (Pseudokirchneriella subcapitata); assay: Algal toxicity, growth inhibition of freshwater algae over 72 hours (OECD Guideline 201); format: cell-based; conditions: inhibition of 50% of algal growth
Procedure: The toxicity of the substances for the environment can be measured with regard to various standardized tests. One of the more sensitive consists of the measurement of the toxicity with regard to freshwater algae (Pseudokirchneriella subcapitata). The test is carried out according to the OECD Guideline 201. It consists in evaluating the inhibition of the growth of the algae over a period of time of 72 hours. The characteristic parameter is the EC50, which is the concentration of the substance which brings about inhibition of 50% of the algal growth during the test.

[2] = Biodegradability in seawater (OECD Guideline 306); conditions: marine environment
Procedure: The biodegradability tests are carried out in a marine environment according to the OECD Guideline 306.

Molecule	Algal toxicity (EC50 in mg/l) [1]	OECD 306 Biodegradability, % of biodegradation in 28 days [2]
CCCCCCCCC=CCCCCCCCC1=NCCN1CCN [Imidazoline A, N-aminoethyl-2-heptadecenylimidazoline]	0.0047 mg/L	57%
N-aminoethyl-2-heptadecenylimidazoline maleate [Example 2]	1 mg/L	66%

Source: patent US20110186299A1, “Low-Toxicity Biodegradable Corrosion Inhibitors” (priority 2008, published 2011)
